According to ChEMBL document CHEMBL4219024, “A "Click Chemistry Platform" for the Rapid Synthesis of Bispecific Molecules for Inducing Protein Degradation” (J Med Chem, 2018):
≈ marks a conversion by molar mass, not a printed value. Calls of active or inactive are those of the source. No cut-off for these calls is given here.

Legend:
[1] = biological target: T1, Protein cereblon/Bromodomain-containing protein 4/DNA damage-binding protein 1 (Homo sapiens, UniProt O60885+Q96SW2+Q16531); experiment: Induction of CRBN/DDB1-mediated BRD4 protein degradation in human NCI-H661 cells assessed as drug level causing 50% cellular protein depletion incubated for 4 hrs by MSD assay
[2] = Solubility of the compound in PBS
[3] = Solubility of the compound in 0.01 N HCl
[4] = biological target: T2, von Hippel-Lindau disease tumor suppressor/Bromodomain-containing protein 4 (Homo sapiens) (UniProt O60885+P40337); experiment: Induction of human His-tagged VHL(1 to 154)/GST-tagged BRD4 (49 to 170 residues) interaction assessed as VHL/BRD4/compound complex formation preincubated for 60 mins and measured after 60 mins by luminescence based Alphascreen proximity assay relative to control; type: protein assay
T2 sequence (P40337 whole entry, looked up, other chains not shown, the tested form may be a part): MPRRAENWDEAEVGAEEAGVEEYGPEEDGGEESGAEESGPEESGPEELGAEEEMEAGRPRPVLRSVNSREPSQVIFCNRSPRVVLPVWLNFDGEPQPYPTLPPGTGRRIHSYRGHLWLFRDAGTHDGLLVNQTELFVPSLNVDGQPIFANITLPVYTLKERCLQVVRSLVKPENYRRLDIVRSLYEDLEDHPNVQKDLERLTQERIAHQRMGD

physchem = conditions: fasted state simulated intestinal fluid
[5] = biological target: T2, von Hippel-Lindau disease tumor suppressor/Bromodomain-containing protein 4 (Homo sapiens); experiment: Proteolysis targeting chimera activity in human NCI-H661 cells assessed as induction of VHL-mediated delivery of BRD4 for protein degradation by proteasome after 4 hrs in presence of 2-(prop-2-ynyloxy)ethanol by Meso Scale Diagnostics assay; type: cell-based
[6] = biological target: T1, Protein cereblon/Bromodomain-containing protein 4/DNA damage-binding protein 1; experiment: Proteolysis targeting chimera activity in human NCI-H661 cells assessed as induction of CRBN/DDB1-mediated delivery of BRD4 for protein degradation by proteasome at 10 uM after 4 hrs by Meso Scale Diagnostics assay; type: cell-based
[7] = biological target: T1, Protein cereblon/Bromodomain-containing protein 4/DNA damage-binding protein 1; experiment: Proteolysis targeting chimera activity in human NCI-H661 cells assessed as induction of CRBN/DDB1-mediated delivery of BRD4 for protein degradation at 1 uM after 4 hrs by Meso Scale Diagnostics assay; type: cell-based
[8] = biological target: T1, Protein cereblon/Bromodomain-containing protein 4/DNA damage-binding protein 1; experiment: Proteolysis targeting chimera activity in human NCI-H661 cells assessed as induction of CRBN/DDB1-mediated delivery of BRD4 for protein degradation by proteasome at 1 uM after 4 hrs in presence of 10 uM of JQ-1 by Meso Scale Diagnostics assay; type: cell-based
[9] = biological target: T1, Protein cereblon/Bromodomain-containing protein 4/DNA damage-binding protein 1; experiment: Proteolysis targeting chimera activity in human NCI-H661 cells assessed as induction of CRBN/DDB1-mediated delivery of BRD4 for protein degradation by proteasome at 1 uM after 4 hrs in presence of 10 uM thalidomide by Meso Scale Diagnostics assay; type: cell-based
[10] = biological target: T1, Protein cereblon/Bromodomain-containing protein 4/DNA damage-binding protein 1; experiment: Proteolysis targeting chimera activity in human NCI-H661 cells assessed as induction of CRBN/DDB1-mediated delivery of BRD4 for protein degradation by proteasome at 1 uM after 4 hrs in presence of 20 uM MG132 by Meso Scale Diagnostics assay; type: cell-based

| solubility [2] | solubility ([3]; 0.01 N HCl) | %max [4] | solubility (physchem) | SMILES | DC50 [1] | further results |
| --- | --- | --- | --- | --- | --- | --- |
| 168 µM (≈ 189 µg/mL) | 394 µM (≈ 444 µg/mL) | 15% | 294 µM (≈ 332 µg/mL) | Cc1ncsc1-c1ccc(CNC(=O)[C@@H]2C[C@@H](O)CN2C(=O)[C@@H](NC(=O)COCCOCCOCCOCc2cn(CCNC(=O)C[C@@H]3N=C(c4ccc(Cl)cc4)c4c(sc(C)c4C)-n4c(C)nnc43)nn2)C(C)(C)C)cc1 | 460 nM | – |
| 97 µM (≈ 97.3 µg/mL) | – | 100% | 164 µM (≈ 164 µg/mL) | Cc1ncsc1-c1ccc(CNC(=O)[C@@H]2C[C@@H](O)CN2C(=O)[C@@H](NC(=O)COCCOCCOCCNC(=O)C[C@@H]2N=C(c3ccc(Cl)cc3)c3c(sc(C)c3C)-n3c(C)nnc32)C(C)(C)C)cc1 | – | solubility ([3]; buffer): 450 µM (≈ 451 µg/mL) |
| – | 314 µM (≈ 313 µg/mL) | 46% | 90 µM (≈ 89.6 µg/mL) | Cc1ncsc1-c1ccc(CNC(=O)[C@H]2CN(C(=O)[C@@H](NC(=O)COCc3cn(CCNC(=O)C[C@@H]4N=C(c5ccc(Cl)cc5)c5c(sc(C)c5C)-n5c(C)nnc54)nn3)C(C)(C)C)C[C@@H]2O)cc1 | 59 nM | – |
| 38 µM (≈ 39.5 µg/mL) | 343 µM (≈ 357 µg/mL) | 22% | 178 µM (≈ 185 µg/mL) | Cc1ncsc1-c1ccc(CNC(=O)[C@@H]2C[C@@H](O)CN2C(=O)[C@@H](NC(=O)COCCOCc2cn(CCNC(=O)C[C@@H]3N=C(c4ccc(Cl)cc4)c4c(sc(C)c4C)-n4c(C)nnc43)nn2)C(C)(C)C)cc1 | 83 nM | Activity [5]: inactive |
| 206 µM (≈ 241 µg/mL) | 500 µM (≈ 586 µg/mL) | 3% | 313 µM (≈ 367 µg/mL) | Cc1ncsc1-c1ccc(CNC(=O)[C@@H]2C[C@@H](O)CN2C(=O)[C@@H](NC(=O)COCCOCCOCCOCCOCc2cn(CCNC(=O)C[C@@H]3N=C(c4ccc(Cl)cc4)c4c(sc(C)c4C)-n4c(C)nnc43)nn2)C(C)(C)C)cc1 | 630 nM | – |
| 71 µM (≈ 76.9 µg/mL) | 293 µM (≈ 318 µg/mL) | 11% | 183 µM (≈ 198 µg/mL) | Cc1ncsc1-c1ccc(CNC(=O)[C@@H]2C[C@@H](O)CN2C(=O)[C@@H](NC(=O)COCCOCCOCc2cn(CCNC(=O)C[C@@H]3N=C(c4ccc(Cl)cc4)c4c(sc(C)c4C)-n4c(C)nnc43)nn2)C(C)(C)C)cc1 | 240 nM | – |

The next lines start with the molecule.

| SMILES | solubility [2] | solubility ([3]; 0.01 N HCl) | %max [4] | solubility (physchem) | DC50 [1] | further results |
| --- | --- | --- | --- | --- | --- | --- |
| Cc1sc2c(c1C)C(c1ccc(Cl)cc1)=N[C@@H](CC(=O)NCCCCNC(=O)COc1cccc3c1C(=O)N(C1CCC(=O)NC1=O)C3=O)c1nnc(C)n1-2 (stereo partly specified) | 60 µM (≈ 47.1 µg/mL) | 171 µM (≈ 134 µg/mL) | – | 97 µM (≈ 76.2 µg/mL) | – | – |
| Cc1sc2c(c1C)C(c1ccc(Cl)cc1)=N[C@@H](CC(=O)NCCn1cc(COCCOCCOCCOc3cccc4c3C(=O)N(C3CCC(=O)NC3=O)C4=O)nn1)c1nnc(C)n1-2 (stereo partly specified) | 130 µM (≈ 119 µg/mL) | 310 µM (≈ 283 µg/mL) | – | 216 µM (≈ 197 µg/mL) | – | – |
| Cc1sc2c(c1C)C(c1ccc(Cl)cc1)=N[C@@H](CC(=O)NCCn1cc(COc3cccc4c3C(=O)N(C3CCC(=O)NC3=O)C4=O)nn1)c1nnc(C)n1-2 (stereo partly specified) | 31 µM (≈ 24.2 µg/mL) | 171 µM (≈ 134 µg/mL) | – | 191 µM (≈ 149 µg/mL) | – | – |
| Cc1sc2c(c1C)C(c1ccc(Cl)cc1)=N[C@@H](CC(=O)NCCn1cc(COCCOCCOc3cccc4c3C(=O)N(C3CCC(=O)NC3=O)C4=O)nn1)c1nnc(C)n1-2 (stereo partly specified) | 76 µM (≈ 66.1 µg/mL) | 237 µM (≈ 206 µg/mL) | – | 237 µM (≈ 206 µg/mL) | > 5000 nM | – |
| C#CCOCCOCCOCCOCCOc1cccc2c1C(=O)N(C1CCC(=O)NC1=O)C2=O (stereo unspecified) | – | – | – | – | – | Activity [6]: inactive |
| Cc1sc2c(c1C)C(c1ccc(Cl)cc1)=N[C@@H](CC(=O)NCCn1cc(COCCOc3cccc4c3C(=O)N(C3CCC(=O)NC3=O)C4=O)nn1)c1nnc(C)n1-2 (stereo partly specified) | 111 µM (≈ 91.6 µg/mL) | 242 µM (≈ 200 µg/mL) | – | 247 µM (≈ 204 µg/mL) | > 5000 nM | – |
| Cc1sc2c(c1C)C(c1ccc(Cl)cc1)=N[C@@H](CC(=O)NCCn1cc(COCCOCCOCCOCCOc3cccc4c3C(=O)N(C3CCC(=O)NC3=O)C4=O)nn1)c1nnc(C)n1-2 (stereo partly specified) | 158 µM (≈ 151 µg/mL) | 317 µM (≈ 304 µg/mL) | – | 273 µM (≈ 261 µg/mL) | 200 nM | Activity [7]: > 90%; Activity [8]: inactive; Activity [9]: inactive; Activity [10]: inactive |
| Cc1sc2c(c1C)C(c1ccc(Cl)cc1)=N[C@@H](CC(=O)NCCN=[N+]=[N-])c1nnc(C)n1-2 | – | – | – | – | – | Activity [6]: inactive |
